Results: patent US9409908B2 (priority 2012, dated 2016)
Where a name gives a salt, the structure may show the parent alone. Read-outs that look alike come from different tables or passages of the source.

What was measured:
[1] = target: purified human Factor XIa (Homo sapiens (Human), UniProt P03951); assay: biochemical; assay type: biochemical
[2] = target: purified human plasma kallikrein (Homo sapiens (Human), UniProt P03952); assay: biochemical; assay type: biochemical
[3] = TFA salt, read-out: Factor XIa Ki
[4] = TFA salt, read-out: Plasma Kallikrein Ki

Chain of purified human plasma kallikrein (P03952 whole entry, looked up): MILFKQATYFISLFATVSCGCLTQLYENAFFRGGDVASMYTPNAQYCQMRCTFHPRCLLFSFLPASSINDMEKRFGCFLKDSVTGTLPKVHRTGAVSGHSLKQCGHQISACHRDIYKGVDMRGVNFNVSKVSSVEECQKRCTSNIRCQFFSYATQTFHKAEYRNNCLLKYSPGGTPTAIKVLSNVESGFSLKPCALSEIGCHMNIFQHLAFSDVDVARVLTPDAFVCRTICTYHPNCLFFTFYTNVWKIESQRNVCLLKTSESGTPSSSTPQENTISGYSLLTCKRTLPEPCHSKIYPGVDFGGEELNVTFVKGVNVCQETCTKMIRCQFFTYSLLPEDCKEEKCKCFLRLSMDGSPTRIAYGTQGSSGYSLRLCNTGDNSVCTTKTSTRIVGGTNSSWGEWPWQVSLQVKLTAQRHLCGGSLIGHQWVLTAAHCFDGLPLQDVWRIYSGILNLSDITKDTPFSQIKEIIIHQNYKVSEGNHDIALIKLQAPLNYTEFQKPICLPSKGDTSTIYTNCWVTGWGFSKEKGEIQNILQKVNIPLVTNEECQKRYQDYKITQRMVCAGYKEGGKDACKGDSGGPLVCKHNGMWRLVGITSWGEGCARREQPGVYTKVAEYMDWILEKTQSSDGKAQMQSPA
Chain of purified human plasma kallikrein (P03952 whole entry partner, looked up): as the sequence (P03952 whole entry, looked up) above
Chain of purified human Factor XIa (P03951 whole entry, looked up): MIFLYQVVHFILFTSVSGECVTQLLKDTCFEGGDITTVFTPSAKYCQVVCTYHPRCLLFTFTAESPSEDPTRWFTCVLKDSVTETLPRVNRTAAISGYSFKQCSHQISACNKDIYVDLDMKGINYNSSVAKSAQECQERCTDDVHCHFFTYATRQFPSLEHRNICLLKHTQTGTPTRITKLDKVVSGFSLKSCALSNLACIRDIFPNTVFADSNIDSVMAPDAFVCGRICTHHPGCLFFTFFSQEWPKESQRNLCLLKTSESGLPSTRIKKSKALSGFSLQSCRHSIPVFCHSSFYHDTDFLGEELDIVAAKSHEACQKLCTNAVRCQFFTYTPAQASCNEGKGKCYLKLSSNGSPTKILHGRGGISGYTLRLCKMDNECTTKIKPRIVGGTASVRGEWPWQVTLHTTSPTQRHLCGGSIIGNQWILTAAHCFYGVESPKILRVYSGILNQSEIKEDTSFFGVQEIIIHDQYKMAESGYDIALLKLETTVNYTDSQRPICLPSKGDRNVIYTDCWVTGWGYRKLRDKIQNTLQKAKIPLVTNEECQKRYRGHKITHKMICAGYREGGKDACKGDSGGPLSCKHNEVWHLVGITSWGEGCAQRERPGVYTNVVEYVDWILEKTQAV
Chain of purified human Factor XIa (P03951 whole entry partner, looked up): as the sequence (P03951 whole entry, looked up) above

Row | Structure (SMILES) | Ki ([1]; read-out: Factor XIa Ki) [nM] | Ki ([2]; read-out: Plasma Kallikrein Ki) [nM] | also measured
1 | COC(=O)Nc1ccc2c(c1)NC(=O)C(C)(O)CCC[C@H](N1CCC(c3c(F)ccc(Cl)c3F)=CC1=O)c1cc-2ccn1 (single isomer, unassigned) [Example 124, TFA salt] |  |  | Ki [1]: 346 nM; Ki ([2]; Plasma Kallikrein Ki): 483 nM
2 | COC(=O)Nc1ccc2c(c1)NC(=O)[C@H](C)CCC[C@H](N1CCC(C3CCCC(C)C3)=CC1=O)c1cc-2ccn1 (single isomer, unassigned) [Example 153, TFA salt] |  |  | Ki [1, 3]: 20 nM; Ki [2, 4]: 21.2 nM
3 | COC(=O)Nc1ccc2c(c1)NC(=O)[C@H](C)CCC[C@H](N1CCC(C3CCCC(C)C3)=CC1=O)c1cc-2ccn1 (single isomer, unassigned) [Example 218, TFA salt] |  |  | Ki [1, 3]: 38.2 nM; Ki [2, 4]: 378 nM
4 | COC(=O)Nc1ccc2c(c1)NC(=O)[C@H](C)CCC[C@H](N1CCC(C3CCCC(C)C3)=CC1=O)c1cc-2ccn1 (single isomer, unassigned) [Example 225, TFA salt] |  |  | Ki [1, 3]: 26.1 nM; Ki [2, 4]: 95.5 nM
5 | COC(=O)Nc1ccc2c(c1)NC(=O)[C@H](C)CCC[C@H](N1CCC(C3CCCC(C)C3)=CC1=O)c1cc-2ccn1 (single isomer, unassigned) [Example 226, TFA salt] |  |  | Ki [1, 3]: 24.6 nM; Ki [2, 4]: 165 nM
6 | COC(=O)Nc1ccc2c(c1)C(=O)N[C@H](C)CCC[C@H](N1CCC(c3c(F)ccc(Cl)c3F)=CC1=O)c1cc-2ccn1 (single isomer, unassigned; diastereomer b) [Example 194, TFA salt] |  |  | Ki [1]: > 422 nM; Ki ([2]; Plasma Kallikrein Ki): 310 nM
7 | COC(=O)Nc1ccc2c(c1)NC(=O)[C@H](C)CCC[C@H](N1CC(C)C(c3c(F)ccc(Cl)c3F)=CC1=O)c1cc-2ccn1 (single isomer, unassigned; isomer 1) [Example 177] |  |  | Ki [1]: 0.8 nM; Ki ([2]; Plasma Kallikrein Ki): 4.02 nM
8 | COC(=O)Nc1ccc2c(c1)NC(=O)[C@H](C)CCC[C@H](N1CCC(c3c(OC)ccc(Cl)c3F)=CC1=O)c1cc-2ccn1 [Example 1, Methyl N-[(10R,14S)-14-[4-(3-chloro-2-fluoro-6-methoxyphenyl)-6-oxo-1,2,3,6-tetrahydropyridin-1-yl]-10-methyl-9-oxo-8,16-diazatricyclo[13.3.1.0^2,7]nonadeca-1(19),2,4,6,15,17-hexaen-5-yl]carbamate, TFA salt] | 0.87 | 10 | 
9 | COC(=O)Nc1ccc2c(c1)NC(=O)[C@H](C)CCC[C@H](N1CCC(c3c(C)ccc(Cl)c3F)=CC1=O)c1cc-2ccn1 [Example 2, Methyl N-[(10R,14S)-14-[4-(3-chloro-2-fluoro-6-methylphenyl)-6-oxo-1,2,3,6-tetrahydropyridin-1-yl]-10-methyl-9-oxo-8,16-diazatricyclo[13.3.1.0^2,7]nonadeca-1(19),2,4,6,15,17-hexaen-5-yl]carbamate, TFA salt] | 0.23 | 5 | 
10 | COC(=O)Nc1ccc2c(c1)NC(=O)[C@H](C)CCC[C@H](N1CCC(c3c(C#N)ccc(Cl)c3F)=CC1=O)c1cc-2ccn1 [Example 3, Methyl N-[(10R,14S)-14-[4-(3-chloro-6-cyano-2-fluorophenyl)-6-oxo-1,2,3,6-tetrahydropyridin-1-yl]-10-methyl-9-oxo-8,16-diazatricyclo[13.3.1.0^2,7]nonadeca-1(19),2,4,6,15,17-hexaen-5-yl]carbamate, TFA salt] | 0.03 | 1 | 
11 | COC(=O)Nc1ccc2c(c1)NC(=O)[C@H](C)CCC[C@H](N1CCC(c3c(F)cccc3C#N)=CC1=O)c1cc-2ccn1 [Example 4, Methyl N-[(10R,14S)-14-[4-(2-cyano-6-fluorophenyl)-6-oxo-1,2,3,6-tetrahydropyridin-1-yl]-10-methyl-9-oxo-8,16-diazatricyclo[13.3.1.0^2,7]nonadeca-1(19),2,4,6,15,17-hexaen-5-yl]carbamate, TFA salt] | 2.64 | 1 | 
12 | COC(=O)Nc1ccc2c(c1)NC(=O)[C@H](C)CCC[C@H](N1CCC(c3nccc(Cl)c3F)=CC1=O)c1cc-2cc(OC)n1 [Example 5, Methyl N-[(10R,14S)-14-[4-(4-chloro-3-fluoropyridin-2-yl)-6-oxo-1,2,3,6-tetrahydropyridin-1-yl]-17-methoxy-10-methyl-9-oxo-8,16-diazatricyclo[13.3.1.0^2,7]nonadeca-1(18),2,4,6,15(19),16-hexaen-5-yl]carbamate, TFA salt] | 2 | 3 | 
13 | COC(=O)Nc1ccc2c(c1)NC(=O)[C@H](C)CCC[C@H](N1CCC(c3nccc(Cl)c3OC)=CC1=O)c1cc-2cc(OC)n1 [Example 6, Methyl N-[(10R,14S)-14-[4-(4-chloro-3-methoxypyridin-2-yl)-6-oxo-1,2,3,6-tetrahydropyridin-1-yl]-17-methoxy-10-methyl-9-oxo-8,16-diazatricyclo[13.3.1.0^2,7]nonadeca-1(18),2,4,6,15(19),16-hexaen-5-yl]carbamate, TFA salt] | 158 | 303 | 
14 | COC(=O)Nc1ccc2c(c1)NC(=O)[C@H](C)CCC[C@H](N1CCC(c3c(C#N)ccc(C#N)c3F)=CC1=O)c1cc-2cc(OC)n1 [Example 7, Methyl N-[(10R,14S)-14-[4-(3,6-dicyano-2-fluorophenyl)-6-oxo-1,2,3,6-tetrahydropyridin-1-yl]-17-methoxy-10-methyl-9-oxo-8,16-diazatricyclo[13.3.1.0^2,7]nonadeca-1(18),2,4,6,15(19),16-hexaen-5-yl]carbamate] | 5.42 | 10 | 
15 | C[C@@H]1CCC[C@H](N2CCC(c3c(F)ccc(Cl)c3F)=CC2=O)c2cc(ccn2)-c2cc(Cl)c(O)c(Cl)c2NC1=O [Example 20, (10R,14S)-4,6-Dichloro-14-[4-(3-chloro-2,6-difluorophenyl)-6-oxo-1,2,3,6-tetrahydropyridin-1-yl]-5-hydroxy-10-methyl-8,16-diazatricyclo[13.3.1.0^2,7]nonadeca-1(19),2,4,6,15,17-hexaen-9-one, TFA salt] |  | 973 | 
16 | CC1CCC[C@H](N2CCC(c3c(F)ccc(Cl)c3F)=CC2=O)c2cc(ccn2)-c2ccc(C#N)cc2NC1=O (stereo partly drawn) [Example 109, (14S)-14-[4-(3-Chloro-2,6-difluorophenyl)-6-oxo-1,2,3,6-tetrahydropyridin-1-yl]-10-methyl-9-oxo-8,16-diazatricyclo[13.3.1.0^2,7]nonadeca-1(18),2,4,6,15(19),16-hexaene-5-carbonitrile, TFA salt] |  | 40 | 
17 | C[C@@H]1CCC[C@H](N2CCC(c3c(F)ccc(Cl)c3F)=CC2=O)c2cc(ccn2)-c2ccc(NC3O[C@H](CO)[C@@H](O)[C@@H](O)[C@H]3NC(=O)OC(C)(C)C)cc2NC1=O (stereo partly drawn) [Example 132, tert-butyl N-[(3R,4S,5S,6R)-2-{[(10R,14S)-14-[4-(3-chloro-2,6-difluorophenyl)-6-oxo-1,2,3,6-tetrahydropyridin-1-yl]-10-methyl-9-oxo-8,16-diazatricyclo[13.3.1.0^2,7]nonadeca-1(19),2,4,6,15,17-hexaen-5-yl]amino}-4,5-dihydroxy-6-(hydroxymethyl)oxan-3-yl]carbamate] |  | 17.3 | 
18 | COC(=O)Nc1ccc2c(c1)NC(=O)[C@H](C)CCC[C@H](N1CCC(c3cccc(Cl)c3F)=CC1=O)c1nc-2c(C)[nH]1 [Example 151, Methyl N-[(10R,14S)-14-[4-(3-chloro-2-fluorophenyl)-6-oxo-1,2,3,6-tetrahydropyridin-1-yl]-10,17-dimethyl-9-oxo-8,16,18-triazatricyclo[13.2.1.0^2,7]octadeca-1(17),2,4,6,15(18)-pentaen-5-yl]carbamate] |  | 23.8 | 
